From patent publication US8017629B2, “Compounds and uses thereof in modulating amyloid β” (Neurogenetic Pharmaceuticals, Inc., priority 2003, dated 2011) come the findings set out here.

The structures appear in SMILES notation. pEC50, pIC50: −log10 of the molar value.

BACE Enzyme, sequence (P56817 46-501, species assumed): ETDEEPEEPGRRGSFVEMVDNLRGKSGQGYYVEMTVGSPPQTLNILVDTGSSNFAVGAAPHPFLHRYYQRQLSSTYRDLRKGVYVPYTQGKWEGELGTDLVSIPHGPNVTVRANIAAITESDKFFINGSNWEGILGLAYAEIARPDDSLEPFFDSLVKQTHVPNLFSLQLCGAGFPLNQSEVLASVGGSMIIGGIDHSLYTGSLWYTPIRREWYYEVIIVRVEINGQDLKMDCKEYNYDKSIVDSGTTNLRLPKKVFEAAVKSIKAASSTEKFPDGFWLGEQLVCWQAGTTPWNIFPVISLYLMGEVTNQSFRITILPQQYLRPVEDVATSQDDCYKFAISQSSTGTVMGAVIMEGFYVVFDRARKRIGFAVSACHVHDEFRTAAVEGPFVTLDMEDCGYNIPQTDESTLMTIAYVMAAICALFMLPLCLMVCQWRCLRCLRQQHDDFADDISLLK

The test system of the first assay is Aβ42 levels in the extracellular medium. The experiment in a line: FRET (HTRF) assay, Aβ42 level of the extracellular medium of SH-SY5Y-APP cells. Type of assay: cell-based. Particulars: Homo sapiens, concentration at which reduction of Aβ42 level was half of the maximum reduction, read-out: Ab42 Potency. Background: In TR-FRET formats the signal depends on donor and acceptor labels being close together.
With `COc1ccc(Nc2nc(-c3ccc(N4CCN(C)CC4)cc3)cs2)cc1` [Compound 137], the pEC50 was 5.30 to 5.96.
The same measure, in the same setting: with `CCN(C)c1cc(Nc2nc(-c3ccc(-n4cnc(C)c4)nc3)cs2)c(C)cc1C` [Compound 336] the figure was above 6.70; with `Cc1cn(-c2ccc(-c3csc(Nc4cc(C(C)C)ccc4C)n3)cc2)cn1` [Compound 326], above 6.70; with `Clc1cccc(Nc2nc(-c3ccc(-n4ccnc4)cc3)cs2)c1` [Compound 152], 4.52 to 5.00.
Still for that read-out and setting: next, `CCN(CCOC)c1ccc(Nc2nc(-c3ccc(-n4ccnc4)cc3)cs2)c(C)c1` [Compound 230]: 5.30 to 5.96; `CCN(CC)c1ccc(Nc2nc(-c3ccc(-n4cnc(C)c4)cc3)cs2)c(C)c1` [Compound 179]: 6.00 to 6.70; `COc1ccc(-c2csc(Nc3ccc(OC)c(OC)c3)n2)c(OC)c1` [Compound 101]: 5.30 to 5.96.
Regarding `COc1ccc(-c2csc(Nc3ccc(Cl)cc3)n2)c(OC)c1` [Compound 150], the pEC50 is 5.30 to 5.96.
Same read-out and setting: with `Cc1cc(N2CCN(Cc3ccccc3)CC2)ccc1Nc1nc(-c2ccc(-n3ccnc3)cc2)cs1` [Compound 201] the figure was 5.30 to 5.96; with `CCc1cc(N2CCN(C)CC2)ccc1Nc1nc(-c2ccc(-n3ccnc3)cc2)cs1` [Compound 240], 5.30 to 5.96.
On the same count and under the same terms, next, `Clc1cccc(Nc2nc(-c3ccc4c(c3)OCO4)cs2)c1` [Compound 154]: 4.52 to 5.00.
As to `COc1cc(Nc2nc(-c3ccc4c(c3)OCCO4)cs2)cc(OC)c1OC` [Compound 102], the pEC50 was 5.00 to 5.29.
The same measure, in the same setting: next, `CCN(CC)c1ccc(Nc2nc(-c3ccc(-n4ccnc4)cc3)cs2)cc1` [Compound 177]: 5.30 to 5.96; `Cc1cn(-c2ccc(-c3csc(Nc4cc(C)c(OCC5CC5)cc4C)n3)cc2)cn1` [Compound 280]: above 6.70.
Same read-out and setting: with `Cc1cc(C)c(Nc2nc(-c3ccc(-n4nccn4)cc3)cs2)cc1C` [Compound 244] the figure was 5.30 to 5.96; with `Cc1ccc(Nc2nc(-c3ccc(N4CCN(C)CC4)cc3)cs2)cc1C` [Compound 195], 4.52 to 5.00.
The same measure, in the same setting: with `CN1CCN(c2ccc(-c3csc(Nc4ccc5c(c4)OCO5)n3)cn2)CC1` [Compound 328] the figure was 6.00 to 6.70; with `FC(F)(F)c1cc(NCCN2CCCC2)ccc1Nc1nc(-c2ccc(-n3ccnc3)cc2)cs1` [Compound 222], 5.30 to 5.96; with `CCOc1cc(C)c(Nc2nc(-c3ccc(-n4ccnc4)nc3)cs2)cc1C` [Compound 318], above 6.70.
As to `CCN(CC)c1ccc(C)c(Nc2nc(-c3ccc(-n4cnc(C)c4)nc3)cs2)c1` [Compound 270], the pEC50 is above 6.70.
On to `Oc1ccc(-c2csc(Nc3ccc4c(c3)OCO4)n2)cc1O` [Compound 111], for which the pEC50 was 5.30 to 5.96.
Same read-out and setting: next, `CCCN(c1ccc(Cl)c(Cl)c1)c1nc(-c2ccc(-n3ccnc3)cc2)cs1` [Compound 174]: 4.52 to 5.00.
Still for that read-out and setting: next, `CCN(CC)c1ccc(Nc2nc(-c3ccc(-c4ncc(Br)s4)cc3)cs2)c(C)c1` [Compound 312]: 6.00 to 6.70; `CSc1cccc(Nc2nc(-c3ccc(N(C)C)cc3)cs2)c1` [Compound 165]: 5.00 to 5.29; `CCN(CC)c1ccc(Nc2nc(-c3ccc(-n4cnc(-c5ccccc5)c4)cc3)cs2)c(C)c1` [Compound 147]: 5.30 to 5.96.
Regarding `Clc1cc(Cl)c(Nc2nc(-c3ccc(-n4ccnc4)cc3)cs2)c(Cl)c1` [Compound 213], the pEC50 is 5.30 to 5.96.
On the same count and under the same terms, with `Clc1ccc(Nc2nc(-c3ccc(-n4cnc(Cl)c4Cl)cc3)cs2)cc1Cl` [Compound 186] the figure was 5.30 to 5.96.
On the same count and under the same terms, next, `c1ccc2cc(-c3csc(Nc4ccc5[nH]cnc5c4)n3)ccc2c1` [Compound 159]: 5.00 to 5.29; `CCN(C)c1ccc(C)c(Nc2nc(-c3ccc(-n4cnc(C)c4)cc3)cs2)c1` [Compound 347]: above 6.70.
The same measure, in the same setting: next, `CC(C)N(c1ccccc1)c1ccc(Nc2nc(-c3ccncc3)cs2)cc1` [Compound 169]: 4.52 to 5.00.
In the case of `Clc1ccc(Nc2nc(-c3ccc(-n4ccnc4)cc3)cs2)cc1Cl` [Compound 173], the pEC50 is 5.30 to 5.96.
On the same count and under the same terms, next, `Cc1ccc(CO)cc1Nc1nc(-c2ccc(-n3cnc(Br)c3)cc2)cs1` [Compound 301]: 6.00 to 6.70; `Cc1cn(-c2ccc(-c3nc(Nc4cc(Cl)c(Cl)cc4Cl)sc3C)cc2)cn1` [Compound 245]: 5.30 to 5.96.
On the same count and under the same terms, with `CN1CCN(C(=O)c2ccc(Nc3nc(-c4ccc(N5CCN(C)CC5)cc4)cs3)cc2)CC1` [Compound 191] the figure was 5.30 to 5.96.

Another assay concerns the target BACE Enzyme (Homo sapiens, UniProt P56817). Put plainly: BACE Enzyme Potency (Table 12).
Conditions: not given
Type of assay: biochemical.
In turn, `COc1ccc(-c2csc(Nc3ccc(N(C)C)cc3)n2)c(OC)c1` [Compound 355] gave a pIC50 of 5.30 to 5.96.

Still in this assay, the particulars now being: Table 12; class symbols; read-out: BACE Enzyme Potency.
For the compound `CN1CCN(c2ccc(-c3csc(Nc4ccc(Cl)cc4)n3)cc2)CC1` [Compound 378], the pIC50 was 6.00 to 6.70.
The same measure, in the same setting: with `CN1CCN(c2ccc(-c3csc(Nc4cccc5cccnc45)n3)cc2)CC1` [Compound 360] the figure was above 6.70; with `COc1cccc(CNc2nc(-c3ccc(N4CCN(C)CC4)cc3)cs2)c1` [Compound 365], 5.00 to 5.29; with `COc1cc(Nc2nc(-c3ccc(F)cc3)cs2)cc(OC)c1OC` [Compound 354], 6.00 to 6.70.
Still for that read-out and setting: with `CSc1cccc(Nc2nc(-c3ccc(-n4ccnc4)cc3)cs2)c1` [Compound 371] the figure was 6.00 to 6.70; with `Brc1ccc(Nc2nc(-c3ccc(N4CCCC4)cc3)cs2)cc1` [Compound 361], 6.00 to 6.70; with `CC(C)N(c1ccccc1)c1ccc(Nc2nc(-c3ccc(-n4ccnc4)cc3)cs2)cc1` [Compound 373], 6.00 to 6.70.
Same read-out and setting: next, `CN1CCN(c2ccc(-c3csc(Nc4ccc(Oc5ccccc5)cc4)n3)cc2)CC1` [Compound 369]: above 6.70; `CN1CCN(c2ccc(-c3csc(Nc4cccc(Cl)c4)n3)cc2)CC1` [Compound 376]: 6.00 to 6.70; `CN1CCN(c2ccc(-c3csc(Nc4ccc(N(C)C)cc4)n3)cc2)CC1` [Compound 358]: 6.00 to 6.70.
For the compound `CCN1CCN(c2ccc(-c3csc(Nc4ccc5c(c4)OCO5)n3)cc2)CC1` [Compound 375], the pIC50 is 5.30 to 5.96.
On the same count and under the same terms, with `COc1cc(Nc2nc(-c3ccc(N4CCN(C)CC4)cc3)cs2)cc(OC)c1OC` [Compound 356] the figure was 6.00 to 6.70; with `COc1ccc(-c2csc(Nc3ccc(OC)c(OC)c3)n2)c(OC)c1` [Compound 353], 6.00 to 6.70.
Still for that read-out and setting: next, `CSc1cccc(Nc2nc(-c3ccc(N4CCN(C)CC4)cc3)cs2)c1` [Compound 372]: 6.00 to 6.70; `COc1ccc(-c2csc(Nc3ccc(Br)cc3)n2)c(OC)c1` [Compound 362]: 6.00 to 6.70; `c1cc(Nc2nc(-c3ccc4c(c3)OCO4)cs2)c2cn[nH]c2c1` [Compound 377]: 6.00 to 6.70.
Same read-out and setting: next, `CSc1cccc(Nc2nc(-c3ccc(N4CCCC4)cc3)cs2)c1` [Compound 379]: 6.00 to 6.70; `CN1CCN(c2ccc(-c3csc(Nc4ccc5[nH]ncc5c4)n3)cc2)CC1` [Compound 368]: 5.30 to 5.96.
As to `COc1ccc(-c2csc(Nc3ccc4[nH]cnc4c3)n2)c(OC)c1` [Compound 374], the pIC50 is 6.00 to 6.70.
In the case of `CN1CCN(c2ccc(-c3csc(Nc4ccc5c(cnn5C)c4)n3)cc2)CC1` [Compound 367], the pIC50 is 5.30 to 5.96.
The same measure, in the same setting: with `CN1CCN(c2ccc(-c3csc(Nc4ccc(Cl)c(Cl)c4)n3)cc2)CC1` [Compound 366] the figure was above 6.70; with `CN1CCN(c2ccc(-c3csc(Nc4ccc5ccccc5c4)n3)cc2)CC1` [Compound 359], 6.00 to 6.70.
The same measure, in the same setting: with `CCc1ccc(Nc2nc(-c3ccc(N4CCCC4)cc3)cs2)cc1` [Compound 363] the figure was 6.00 to 6.70.
`CCN(c1ccc(N2CCOCC2)cc1)c1nc(-c2ccc(-n3ccnc3)cc2)cs1` [Compound 381]: the pIC50 was 5.00 to 5.29.
Still for that read-out and setting: with `CN1CCN(c2ccc(-c3csc(Nc4ccc5c(c4)OCCO5)n3)cc2)CC1` [Compound 364] the figure was above 6.70; with `CCN(CC)c1ccc(Nc2nc(-c3ccc(-n4cnc(C)c4)cc3)cs2)c(C)c1` [Compound 380], 5.30 to 5.96.
Same read-out and setting: next, `CCOC(=O)c1ccc(Nc2nc(-c3ccc(N4CCN(C)CC4)cc3)cs2)cc1` [Compound 382]: 6.00 to 6.70; `c1cn(-c2ccc(-c3csc(Nc4ccc5[nH]ccc5c4)n3)cc2)cn1` [Compound 370]: 6.00 to 6.70.
Same read-out and setting: next, `CN1CCN(c2ccc(-c3csc(Nc4ccc5c(c4)OCO5)n3)cc2)CC1` [Compound 357]: 6.00 to 6.70.
